Among the data in US20090111825A1, “THIOPHENE 1,2,4-TRIAZOLE DERIVATIVES AS MODULATORS OF MGLUR5” (priority 2007, published 2009) are Kp and IC50 values, retold here.

Series [1] can be described thus: Determination of brain to plasma ratio in rat. The class given is in vivo. Conditions: brain and plasma, female Sprague Dawley rats, drug in brain over drug in plasma, read-out: Brain/Plasma Ratio of compound in Rat. The protocol:
Brain to plasma ratios are estimated in female Sprague Dawley rats. The compound is dissolved in water or another appropriate vehicle. For determination of brain to plasma ratio the compound is administrated as a subcutaneous, or an intravenous bolus injection, or an intravenous infusion, or an oral administration. At a predetermined time point after the administration a blood sample is taken with cardiac puncture. The rat is terminated by cutting the heart open, and the brain is immediately retained. The blood samples are collected in heparinized tubes and centrifuged within 30 minutes, in order to separate the plasma from the blood cells. The plasma is transferred to 96-well plates and stored at −20° C. until analysis. The brains are divided in half, and each half is placed in a pre-tarred tube and stored at −20° C. until analysis. Prior to the analysis, the brain samples are thawed and 3 mL/g brain tissue of distilled water is added to the tubes. The brain samples are sonicated in an ice bath until the samples are homogenized. Both brain and plasma samples are precipitated with acetonitrile. After centrifugation, the supernatant is diluted with 0.2% formic acid. Analysis is performed on a short reversed-phase HPLC column with rapid gradient elution and MSMS detection using a triple quadrupole instrument with electrospray ionization and Selected Reaction Monitoring (SRM) acquisition. Liquid-liquid extraction may be used as an alternative sample clean-up. The samples are extracted, by shaking, to an organic solvent after addition of a suitable buffer. An aliquot of the organic layer is transferred to a new vial and evaporated to dryness under a stream of nitrogen. After reconstitution of the residuals the samples are ready for injection onto the HPLC column.

In another series the target is T1, human mGluR5d (Homo sapiens, UniProt P41594).
T1 construct: expressed in transfected cells
T1 sequence (P41594 21-942 isoform P41594-3 limits assumed): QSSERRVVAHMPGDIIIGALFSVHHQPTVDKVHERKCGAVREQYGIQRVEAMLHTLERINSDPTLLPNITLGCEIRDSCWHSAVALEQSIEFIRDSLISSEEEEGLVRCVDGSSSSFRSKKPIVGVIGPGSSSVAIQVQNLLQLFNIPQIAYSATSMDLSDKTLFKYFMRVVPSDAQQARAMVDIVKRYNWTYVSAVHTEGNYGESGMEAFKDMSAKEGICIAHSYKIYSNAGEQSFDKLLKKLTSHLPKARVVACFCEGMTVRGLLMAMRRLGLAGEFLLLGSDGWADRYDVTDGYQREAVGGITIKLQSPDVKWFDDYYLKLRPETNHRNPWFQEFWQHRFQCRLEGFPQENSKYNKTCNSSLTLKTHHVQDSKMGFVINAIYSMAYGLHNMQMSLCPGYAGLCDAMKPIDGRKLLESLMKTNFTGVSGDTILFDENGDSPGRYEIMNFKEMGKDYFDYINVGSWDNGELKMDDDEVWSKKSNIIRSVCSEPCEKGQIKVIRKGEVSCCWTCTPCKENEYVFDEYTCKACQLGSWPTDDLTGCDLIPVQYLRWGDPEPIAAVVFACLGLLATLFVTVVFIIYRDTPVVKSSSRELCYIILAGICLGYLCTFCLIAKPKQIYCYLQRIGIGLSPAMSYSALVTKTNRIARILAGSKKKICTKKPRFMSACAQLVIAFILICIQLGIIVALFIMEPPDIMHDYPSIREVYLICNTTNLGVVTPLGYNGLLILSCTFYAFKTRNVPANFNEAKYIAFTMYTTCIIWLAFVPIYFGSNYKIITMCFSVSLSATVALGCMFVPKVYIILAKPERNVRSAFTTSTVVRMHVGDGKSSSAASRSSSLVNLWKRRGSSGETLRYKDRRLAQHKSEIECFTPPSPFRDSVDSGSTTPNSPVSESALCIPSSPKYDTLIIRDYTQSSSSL
The series can be described thus: FLIPR assay, mobilization of intracellular calcium in cells expressing human mGluR5d. The class given is cell-based. The settings on record: antagonism of agonist response, read-out: FLIPR hmGluR5d. An excerpt: The properties of the compounds of the invention can be analyzed using standard assays for pharmacological activity. Examples of glutamate receptor assays are well known in the art as described in for example Aramori et al., Neuron 8:757 (1992), Tanabe et al., Neuron 8:169 (1992), Miller et al., J. Neuroscience 15: 6103 (1995), Balazs, et al., J. Neurochemistry 69:151 (1997). The methodology described in these publications is incorporated herein by reference. Conveniently, the compounds of the invention can be studied by means of an assay (FLIPR) that measures the mobilization of intracellular calcium, [Ca^2+]i in cells expressing mGluR5 or another assay (IP3) that measures inositol phosphate turnover.
Cells expressing human mGluR5d as described in WO97/05252 cultured in a mixture of high glucose DMEM with Glutamax (31966-021)(500 mL), 10% dialyzed fetal bovine serum (Hyclone #SH30079.03)(56 mL), 200 μg/mL Hygromycin B (Invitrogen 45-0430, 50 mg/mL)(2.2 mL), 200 μg/mL Zeocin (Invitrogen #R250-01; 100 mg/mL)(1.1 mL) are seeded at a density of 100,000 cells per well on collagen coated clear bottom 96-well plates with black sides and cells were allowed to adhere over night before experiments. All assays are done in a buffer containing 146 mM NaCl, 5 mM KCl, 1 mM MgCl2, 1 mM CaCl2, 20 mM HEPES, 1 mg/mL glucose and 1 mg/mL BSA Fraction IV (pH 7.4). Cell cultures in the 96-well plates are loaded for 60 minutes in the above mentioned buffer containing 6 μM of the acetoxymethyl ester form of the fluorescent calcium indicator fluo-3 (Molecular Probes, Eugene, Oreg.) in 0.025% pluronic acid (a proprietary, non-ionic surfactant polyol—CAS Number 9003-11-6). Following the loading period the fluo-3 buffer is removed and replaced with fresh assay buffer. FLIPR experiments are done using a laser setting of 0.700 W and a 0.4 second CCD camera shutter speed with excitation and emission wavelengths of 488 nm and 562 nm, respectively. Each experiment is initiated with 160 μl of buffer present in each well of the cell plate. A 40 μl addition from the antagonist plate was followed by a 50 μL addition from the agonist plate. A 30 minutes, in dark at 25° C., interval separates the antagonist and agonist additions. The fluorescence signal is sampled 50 times at 1-second intervals followed by 3 samples at 5-second intervals immediately after each of the two additions. Responses are measured as the difference between the peak heights of the response to agonist) less the background fluorescence within the sample period. IC50 determinations are made using a linear least squares fitting program.

With `Cn1c(-c2cn[nH]c(=O)c2)nnc1N1[C@@H](c2cc(-c3csc(Cl)c3)on2)C[C@H]2C[C@H]21` [Example 10.1, 5-(5-{(1R,3R,5R)-3-[5-(5-Chloro-3-thienyl)isoxazol-3-yl]-2-azabicyclo[3.1.0]hex-2-yl}-4-methyl-4H-1,2,4-triazol-3-yl)pyridazin-3(2H)-one], in series [1], the Kp is 0.06. In addition, on human mGluR5d, the IC50 came out at 0.034 µM.
The corresponding values for `Cn1c(-c2cc[nH]c(=O)c2)nnc1N1[C@@H](c2cc(-c3csc(Cl)c3)on2)C[C@H]2C[C@H]21` [Example 10.2, 4-(5-{(1R,3R,5R)-3-[5-(5-Chloro-3-thienyl)isoxazol-3-yl]-2-azabicyclo[3.1.0]hex-2-yl}-4-methyl-4H-1,2,4-triazol-3-yl)pyridin-2(1H)-one] are under 0.01 and 0.035 µM.
Turning to `Cn1c(-c2cnn(C)c(=O)c2)nnc1N1CCC[C@@H]1c1cc(-c2csc(Cl)c2)on1` [Example 10.3, 5-(5-{(2R)-2-[5-(5-Chloro-3-thienyl)isoxazol-3-yl]pyrrolidin-1-yl}-4-methyl-4H-1,2,4-triazol-3-yl)-2-methylpyridazin-3(2H)-one], the Kp in series [1] was determined as 0.16. In addition, the IC50 on human mGluR5d was 0.061 µM.
For `Cn1c(-c2cn[nH]c(=O)c2)nnc1N1CCC[C@@H]1c1cc(-c2csc(Cl)c2)on1` [Example 10.4, 5-(5-{(2R)-2-[5-(5-Chloro-3-thienyl)isoxazol-3-yl]pyrrolidin-1-yl}-4-methyl-4H-1,2,4-triazol-3-yl)pyridazin-3(2H)-one], the Kp in series [1] is under 0.01. Moreover, at human mGluR5d, the IC50 came to 0.039 µM.
The like results for `Cn1c(-c2ccn(C)c(=O)c2)nnc1N1CCC[C@@H]1c1cc(-c2csc(Cl)c2)on1` [Example 10.5, 4-(5-{(2R)-2-[5-(5-Chloro-3-thienyl)isoxazol-3-yl]pyrrolidin-1-yl}-4-methyl-4H-1,2,4-triazol-3-yl)-1-methylpyridin-2(1H)-one] were, in that order, 0.03 and 0.044 µM.
The corresponding values for `Cn1c(-c2cc[nH]c(=O)c2)nnc1N1CCC[C@@H]1c1cc(-c2csc(Cl)c2)on1` [Example 10.6, 4-(5-{(2R)-2-[5-(5-Chloro-3-thienyl)isoxazol-3-yl]pyrrolidin-1-yl}-4-methyl-4H-1,2,4-triazol-3-yl)pyridin-2(1H)-one] are under 0.01 and 0.035 µM.
